Here are results for 2 compounds from paper PMC5454942, “The Potential of Triterpenoids from Loquat Leaves (Eriobotrya japonica) for Prevention and Treatment of Skin Disorder” (International Journal of Molecular Sciences, 2017).

For orientation: inhibition means the change of the read-out against control, counted positive when it falls. For orientation: IC50 means the concentration at which inhibition is half-maximal. Usually CC50 stands for the concentration at which the toxic effect on the cells reaches its halfway point. A low value points to harm at low concentration. By viability is commonly meant a read-out of living cells in per cent, often relative to untreated cells. In general, MBC refers to the smallest concentration meeting the test's criterion for killing. As a reminder, the MIC is the smallest concentration in the dilution series that meets the test's criterion for growth inhibition.

In data set [1] the test system is Propionibacterium acnes. Kind of data set: Anti-bacterial assay (growth inhibition, MIC/MBC by broth microdilution). It counts as cell-based. The note with it: for inhibition at 100 µg/mL: concentration 100 μg/mL, read-out: Inhibition Rate (P. acnes growth); for activity against P. acnes (in words): at their maximum solubility. The method in brief: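 P. acnes NBRC 107605 grown in GAM broth 30 h at 37 °C, then used at 10^5 CFU/mL. Compounds in DMSO incubated with bacteria 30 h at 37 °C; growth read at 630 nm. MIC and MBC by broth microdilution.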
For orientation: Broth dilution looks for growth in wells or tubes with falling amounts of substance.

The test system of data set [2] is NHDF-Ad cells. Kind of data set: Hyaluronic acid production assay (ELISA, with MTT). It counts as cell-based, human. The note with it: fold of control. As to the method: NHDF-Ad cells were seeded on 96-well plates (5 × 10^3 cells/well) for 24 h before the treatment. The medium was replaced with a mixture of 1 μL of sample solution (DMSO < 0.5% per well) and 99 μL of DMEM supplemented with 0.5% FBS. After 72 h cultivation, the amount of hyaluronic acid in the medium was measured using a QnE Hyaluronic acid ELISA kit (Biotech Trading Partners, Encinitas, CA, USA). The amount of hyaluronic acid production was quantitatively calculated from the standard curve. Cell viability was measured by the MTT method, and ascorbic acid was used as a positive control.
For orientation: ELISA stands for enzyme-linked immunosorbent assay.

Data set [3] deals with B16 melanoma cells. Nature of the data set: Anti-melanogenesis assay (melanin content). It counts as cell-based, mouse. The note with it: for inhibition at 1 µg/mL: 1 μg/ml; for inhibition at 2.5 µg/mL: 2.5 μg/ml. Summed up:
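B16 cells treated with samples in DMSO (<0.2%) for 48 h, then re-dosed in fresh medium for a further 24 h; arbutin served as positive control. Melanin content read at 405 nm and viability by MTT at 570 nm.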

Data set [4] relates to RBL-2H3 cells. Kind of data set: β-hexosaminidase release from IgE-stimulated RBL-2H3 mast cells. It counts as cell-based, rat. The note with it: Rattus norvegicus; for inhibition at 25 µg/mL: 25 μg/mL. The method in brief:
(§1)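 IgE-sensitized RBL-2H3 cells (0.5 μg/mL anti-DNP IgE, 24 h) treated with sample 30 min in Tyrode buffer, then challenged 1 h with 50 μg/mL DNP-BSA. Released β-hexosaminidase measured with 2 mM p-nitrophenyl-N-acetyl-β-glucosaminide, 3 h, A405; viability by parallel MTT.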

Data set [5] can be described thus: Cell viability of B16 melanoma cells (MTT). The following applies: mouse, B16 melanoma cells.
Data set [6] concerns B16 melanoma cells. Kind of data set: Cell viability of B16 melanoma cells (MTT). The following applies: B16 cells.
The nature of data set [7]: Cell viability of RBL-2H3 cells (parallel MTT). It counts as cell-based, rat. The note with it: rat; 25 μg/ml, RBL-2H3 cells; read-out: Cell viability. The method in brief: as §1
Data set [8] relates to Epstein–Barr virus early antigen. Details: method as in PMID 16204964, PMID 14745168. The note with it: cited from earlier work.
The test system of data set [9] is inflammation induced by 12-O-tetradecanoylphorbol-13-acetate (TPA). Also noted: method as in PMID 16204964, PMID 14745168. The note with it: mice; cited from earlier work.
The subject of data set [10] is mushroom tyrosinase. Nature of the data set: Tyrosinase inhibition assay. It counts as biochemical. The method, then: Tyrosinase inhibition activity was evaluated by using L-tyrosine and L-DOPA as substrates, as described. Briefly, 333 μL of 2.5 mM L-tyrosine or L-DOPA solution (Sigma-Aldrich) was mixed with 600 μL of 0.1 M phosphate buffer (pH 6.8) and incubated at 25 °C. Then, 33 μL of the sample solution (dissolved in DMSO in various concentrations) and 33 μL of 1380 units/mL mushroom tyrosinase (Sigma-Aldrich) were added to the mixture. The optical density was measured at 475 nm up to the appropriate time. Kojic acid (Sigma-Aldrich) was used as the positive control; the final concentration is 3.3 μg/mL.

Where [11] appears, read: Mus musculus, B16 cells, read-out: Inhibition rate (100% − melanin synthesis).
[12] abbreviates: Mus musculus, B16 melanoma cells, read-out: IC50 (melanin synthesis).
[13] abbreviates: Mus musculus, B16 melanoma cells, read-out: IC50 melanin.
The mark [14] stands for this setting: RBL-2H3, read-out: Inhibition Rate (β-hexosaminidase release).

≈ marks a conversion by molar mass, not a printed value. Where “and” joins values, the source holds several entries; their conditions need not be identical. Equal entries are not always repeated. Where two headings read alike, the source gives them in different places.

For `C[C@@H]1CC[C@]2(C(=O)O)CC[C@]3(C)C(=CC[C@@H]4[C@@]5(C)CC[C@H](O)C(C)(C)[C@@H]5CC[C@]43C)[C@@H]2[C@]1(C)O` [Compound 10, Pomolic acid], the inhibition at 100 µg/mL in [1] (Cutibacterium acnes) is 84.4 ± 1.2%. Besides, the “activity against P. acnes (in words)” value in data set [1] is recorded as “active”. Moreover, the “HA/CV value (hyaluronic acid %/cell viability %)” value in data set [2] (10 μg/mL) was determined as 5.8. Further, the “S.I (selectivity index, CC50 value/IC50 value)” value in data set [3] (B16 melanoma cells) came out at 0.8. For the same compound, the inhibition at 1 µg/mL in data set [3] (setting [11]) is 3.2 ± 8.2%. The inhibition at 2.5 µg/mL in data set [3] (setting [11]) was 28.4 ± 1.5%. In addition, the inhibition at 5 µg/mL in data set [3] (Mus musculus, 5 μg/ml, B16 cells, read-out: Inhibition rate (100% − melanin synthesis)) stood at 43.9 ± 1.9%. Besides, the inhibition at 10 µg/mL in data set [3] (Mus musculus, 10 μg/ml, B16 cells, read-out: Inhibition rate (100% − melanin synthesis)) turned out to be 55.8 ± 8.1%. For the same compound, the IC50 in data set [3] (setting [12]) worked out at 14 µM; in data set [3] (setting [13]), 6.6 µg/mL. The inhibition at 25 µg/mL in data set [4] (setting [14]) was 22.4 ± 1.9%. Besides, the CC50 at 72 h in data set [5] was 4.9 µg/mL and 10.5 µM. In addition, the “Inhibition rate (100% − cell viability)” value in data set [6] (1 μg/ml) was found to be 1.9 ± 5.4%; in [6] (2.5 μg/ml), 0.0 ± 6.1%; in data set [6] (5 μg/ml), 50.9 ± 4.4%; in data set [6] (10 μg/ml) it was 68.4 ± 1.5%. In addition, the viability at 25 μg/ml in data set [7] stood at 77 ± 5.3%.
On to `C[C@H]1[C@H](C)CC[C@]2(C(=O)O)CC[C@]3(C)C(=CC[C@@H]4[C@@]5(C)CC[C@H](O)C(C)(C)[C@@H]5CC[C@]43C)[C@H]12` [Compound 1, Ursolic acid], for which the MBC in data set [1] (Cutibacterium acnes, P. acnes, broth microdilution, read-out: MBC) amounted to 100 µg/mL (≈ 219 µM). The MIC in [1] (Cutibacterium acnes, P. acnes, broth microdilution, read-out: MIC) worked out at 50 µg/mL (≈ 109 µM). Also, in data set [1] (Cutibacterium acnes), the inhibition at 100 µg/mL turned out to be 109.8 ± 0.5%. Also, the “activity against P. acnes (in words)” value in [1] is given as “active”. Moreover, the “inhibitory activity against TPA-induced Epstein–Barr virus early antigen activation (in words)” value in [8] is “significant inhibitory activity”. Moreover, the “HA/CV value (hyaluronic acid %/cell viability %)” value in data set [2] (5 μg/mL) is listed as 4.7. For the same compound, the inhibition at 0.5 µg/mL in data set [3] (Mus musculus, 0.5 μg/ml, B16 cells, read-out: Inhibition rate (100% − melanin synthesis)) came out at 4.2 ± 1.7%. Besides, in data set [3] (setting [11]), the inhibition at 1 µg/mL stood at 24 ± 0.8%. Moreover, the inhibition at 2.5 µg/mL in [3] (setting [11]) amounted to 58.5 ± 3.2%. Further, the half-maximal inhibitory concentration (IC50) in data set [3] (setting [12]) is 4.8 µM; in data set [3] (setting [13]), 2.2 µg/mL; in data set [4] (IgE-stimulated RBL-2H3 cells, read-out: IC50 (β-hexosaminidase release)), 39.5 µM. The inhibition at 5 µg/mL in data set [4] (RBL-2H3, 5 μg/mL, read-out: Inhibition Rate (β-hexosaminidase release)) is 0%. For the same compound, in [4] (RBL-2H3, 12.5 μg/mL, read-out: Inhibition Rate (β-hexosaminidase release)), the inhibition at 12.5 µg/mL worked out at 37.6 ± 3%. Also, the inhibition at 25 µg/mL in data set [4] (setting [14]) is 72.5 ± 3%. The CC50 at 72 h in data set [5] is 4.3 µg/mL and 9.4 µM. Moreover, the viability at 25 μg/ml in data set [7] turned out to be 103 ± 5.3%. Also, the “inhibitory activity against TPA-induced inflammation (in words)” value in data set [9] is on record as “significant inhibitory activity”. Also, in data set [10] (L-DOPA as substrate), the “inhibitory effect on tyrosinase (in words)” value is listed as “no inhibitory effect”. Moreover, in data set [10] (L-tyrosine as substrate, relatively high concentrations), the “inhibitory activity on tyrosinase (in words)” value is “moderate inhibitory activity”.
